Experimental data reported in patent publication US11330821B2, “Herbicidal compounds” (Syngenta Participations AG, priority 2015, dated 2022).

Key:
Type in all cases: in vivo
Conditions in all cases: post-emergence spray, evaluated after 13 days
[1] = system: Amaranthus retroflexus (AMARE); assay: Post-emergence efficacy, Amaranthus retroflexus
Procedure: (§1) B1 Post-Emergence Efficacy
(§2) Seeds of a variety of test species are shown in standard soil in pots:—Solanum nigrum (SOLNI), Amaranthus retroflexus (AMARE), Setaria faberi (SETFA), Echinochloa crus-galli (ECHCG), Ipomoea hederacea (IPOHE), Lolium perenne (LOLPE). After 8 days cultivation (post-emergence) under controlled conditions in a glasshouse (at 24/16° C., day/night; 14 hours light; 65% humidity), the plants are sprayed with an aqueous spray solution derived from the formulation of the technical active ingredient in acetone/water (50:50) solution containing 0.5% Tween 20 (polyoxyethylene sorbitan monolaurate, CAS RN 9005-64-5). Compounds are applied at 1000 and 62.5 g/ha. The test plants are then grown in a glasshouse under controlled conditions in a glasshouse (at 24/16° C., day/night; 14 hours light; 65% humidity) and watered twice daily. After 13 days, the test is evaluated for the percentage damage caused to the plant. The biological activities are assessed on a five point scale (5=80-100%; 4=60-79%; 3=40-59%; 2=20-39%; 1=0-19%).

[2] = system: Solanum nigrum (SOLNI); assay: Post-emergence efficacy, Solanum nigrum
Procedure: as §1, §2

[3] = system: Setaria faberi (SETFA); assay: Post-emergence efficacy, Setaria faberi
Procedure: as §1, §2

[4] = system: Lolium perenne (LOLPE); assay: Post-emergence efficacy, Lolium perenne
Procedure: as §1, §2

[5] = system: Echinochloa crus-galli (ECHCG); assay: Post-emergence efficacy, Echinochloa crus-galli
Procedure: as §1, §2

[6] = system: Ipomoea hederacea (IPOHE); assay: Post-emergence efficacy, Ipomoea hederacea
Procedure: as §1, §2

| Structure (SMILES) | AMARE percentage damage caused to the plant (five point scale) ([1]; 62.5 g/ha) | AMARE percentage damage caused to the plant (five point scale) ([1]; 1000 g/ha) | SOLNI percentage damage caused to the plant (five point scale) ([2]; 62.5 g/ha) | SOLNI percentage damage caused to the plant (five point scale) ([2]; 1000 g/ha) | SETFA percentage damage caused to the plant (five point scale) ([3]; 62.5 g/ha) | SETFA percentage damage caused to the plant (five point scale) ([3]; 1000 g/ha) | LOLPE percentage damage caused to the plant (five point scale) ([4]; 62.5 g/ha) | LOLPE percentage damage caused to the plant (five point scale) ([4]; 1000 g/ha) | ECHCG percentage damage caused to the plant (five point scale) ([5]; 62.5 g/ha) | ECHCG percentage damage caused to the plant (five point scale) ([5]; 1000 g/ha) | IPOHE percentage damage caused to the plant (five point scale) ([6]; 62.5 g/ha) | IPOHE percentage damage caused to the plant (five point scale) ([6]; 1000 g/ha) |
| --- | --- | --- | --- | --- | --- | --- | --- | --- | --- | --- | --- | --- |
| Cc1nn(C)c(=O)c(-c2c(Cl)ccc(Cl)c2OCc2cccnc2)c1O [Compound 1.02] | 4 (4=60-79%) | 4 (4=60-79%) | 4 (4=60-79%) | 5 (5=80-100%) | 3 (3=40-59%) | 5 (5=80-100%) | 2 (2=20-39%) | 4 (4=60-79%) | 3 (3=40-59%) | 4 (4=60-79%) | 3 (3=40-59%) | 5 (5=80-100%) |
| Cc1nn(C)c(=O)c(-c2c(Cl)ccc(Cl)c2OCc2ccncc2)c1O [Compound 1.03] | 1 (1=0-19%) | 4 (4=60-79%) | 4 (4=60-79%) | 5 (5=80-100%) | 1 (1=0-19%) | 5 (5=80-100%) | 1 (1=0-19%) | 4 (4=60-79%) | 2 (2=20-39%) | 5 (5=80-100%) | 4 (4=60-79%) | 4 (4=60-79%) |
| Cc1nn(C)c(=O)c(-c2c(Cl)ccc(Cl)c2OCc2nccs2)c1O [Compound 1.04] | 5 (5=80-100%) | 5 (5=80-100%) | 5 (5=80-100%) | 5 (5=80-100%) | 5 (5=80-100%) | 5 (5=80-100%) | 3 (3=40-59%) | 5 (5=80-100%) | 4 (4=60-79%) | 5 (5=80-100%) | 5 (5=80-100%) | 5 (5=80-100%) |
| Cc1nn(C)c(=O)c(-c2c(Cl)ccc(Cl)c2OCc2cncs2)c1O [Compound 1.06] | 4 (4=60-79%) | 5 (5=80-100%) | 5 (5=80-100%) | 5 (5=80-100%) | 5 (5=80-100%) | 5 (5=80-100%) | 4 (4=60-79%) | 5 (5=80-100%) | 5 (5=80-100%) | 5 (5=80-100%) | 5 (5=80-100%) | 5 (5=80-100%) |
| Cc1nc(COc2c(Cl)ccc(Cl)c2-c2c(O)c(C)nn(C)c2=O)cs1 [Compound 1.12] | 3 (3=40-59%) | 5 (5=80-100%) | 3 (3=40-59%) | 5 (5=80-100%) | 2 (2=20-39%) | 5 (5=80-100%) | 1 (1=0-19%) | 4 (4=60-79%) | 2 (2=20-39%) | 4 (4=60-79%) | 4 (4=60-79%) | 5 (5=80-100%) |
| Cc1csc(COc2c(Cl)ccc(Cl)c2-c2c(O)c(C)nn(C)c2=O)n1 [Compound 1.13] | 3 (3=40-59%) | 4 (4=60-79%) | 4 (4=60-79%) | 5 (5=80-100%) | 4 (4=60-79%) | 5 (5=80-100%) | 2 (2=20-39%) | 4 (4=60-79%) | 3 (3=40-59%) | 5 (5=80-100%) | 4 (4=60-79%) | 5 (5=80-100%) |
| Cc1nn(C)c(=O)c(-c2c(Cl)ccc(Cl)c2OCc2ccnc(Cl)c2)c1O [Compound 1.14] | 5 (5=80-100%) | 5 (5=80-100%) | 4 (4=60-79%) | 5 (5=80-100%) | 4 (4=60-79%) | 5 (5=80-100%) | 3 (3=40-59%) | 5 (5=80-100%) | 4 (4=60-79%) | 5 (5=80-100%) | 5 (5=80-100%) | 5 (5=80-100%) |
| CC1=NN(C)C(=O)C(c2c(Cl)ccc(Cl)c2OCc2cnc(Cl)s2)C1=O (stereo not drawn) [Compound 1.19, 4-[3,6-dichloro-2-[(2-chlorothiazol-5-yl)methoxy]phenyl]-2,6-dimethyl-pyridazine-3,5-dione] | 5 (5=80-100%) | 5 (5=80-100%) | 5 (5=80-100%) | 5 (5=80-100%) | 5 (5=80-100%) | 5 (5=80-100%) | 5 (5=80-100%) | 5 (5=80-100%) | 3 (3=40-59%) | 5 (5=80-100%) | 5 (5=80-100%) | 5 (5=80-100%) |
| Cc1cnc(COc2c(Cl)ccc(Cl)c2-c2c(O)c(C)nn(C)c2=O)cn1 [Compound 1.21] | 2 (2=20-39%) | 3 (3=40-59%) | 3 (3=40-59%) | 4 (4=60-79%) | 3 (3=40-59%) | 5 (5=80-100%) | 1 (1=0-19%) | 2 (2=20-39%) | 1 (1=0-19%) | 4 (4=60-79%) | 4 (4=60-79%) | 5 (5=80-100%) |
| Cc1nn(C)c(=O)c(-c2c(F)ccc(Cl)c2OCc2cccnc2)c1O [Compound 1.23] | 4 (4=60-79%) | 5 (5=80-100%) | 4 (4=60-79%) | 5 (5=80-100%) | 2 (2=20-39%) | 5 (5=80-100%) | 2 (2=20-39%) | 5 (5=80-100%) | 2 (2=20-39%) | 5 (5=80-100%) | 4 (4=60-79%) | 5 (5=80-100%) |
| Cc1nn(C)c(=O)c(-c2c(F)ccc(Cl)c2OCc2ccncc2)c1O [Compound 1.24] | 2 (2=20-39%) | 5 (5=80-100%) | 4 (4=60-79%) | 5 (5=80-100%) | 1 (1=0-19%) | 5 (5=80-100%) | 1 (1=0-19%) | 5 (5=80-100%) | 3 (3=40-59%) | 5 (5=80-100%) | 4 (4=60-79%) | 5 (5=80-100%) |
